Source: US6693216B2, “Calcium double salts” (Nutrinova Nutrition Specialties & Food Ingredients GmbH, priority 2000, dated 2004)
Where two headings read alike, the source gives them in different places.

Key:
Clostridia = conditions: Part I, 1 g/l in apple juice pH 4.5, 25° C.
Molds I = conditions: Part I, 1 g/l in apple juice pH 4.5, 25° C.
Molds II = conditions: Part I, 1 g/l in apple juice pH 4.5, 25° C.
Lactic acid bacteria = conditions: Part I, 1 g/l in apple juice pH 4.5, 25° C.
Gram-positive bacteria = conditions: Part I, 1 g/l in apple juice pH 4.5, 25° C.
Bacilli = conditions: Part I, 1 g/l in apple juice pH 4.5, 25° C.
Acetic acid bacteria = conditions: Part I, 1 g/l in apple juice pH 4.5, 25° C.
Thermophilic bacilli = conditions: Part I, 1 g/l in apple juice pH 4.5, 25° C.
Gram-negative bacteria = conditions: Part I, 1 g/l in apple juice pH 4.5, 25° C.
Yeasts = conditions: Part I, 1 g/l in apple juice pH 4.5, 25° C.
[1] = sealed
Excerpt: Salts prepared as in example 1 were dried, stored under the specified conditions without the addition of other substances and checked at regular intervals visually for discoloration: […]

[2] = 1 day after inoculation (1.5 × 10^4)
[3] = 3 days after inoculation (1.5 × 10^4)
[4] = 7 days after inoculation (1.5 × 10^4)
[5] = 14 days after inoculation (1.5 × 10^4)

## C/C=C/C=C/C(=O)[O-].CCC(=O)[O-].[Ca+2] [calcium propionate sorbate]
Clostridia; 1 day after inoculation (1.4 × 10^4)
  Number of surviving microorganisms per g of contaminated sample, Clostridia: 1.3 × 10^3 CFU/g
Clostridia; 3 days after inoculation (1.4 × 10^4)
  Number of surviving microorganisms per g of contaminated sample, Clostridia: 800 CFU/g
Clostridia; 7 days after inoculation (1.4 × 10^4)
  Number of surviving microorganisms per g of contaminated sample, Clostridia: 310 CFU/g
Clostridia; 14 days after inoculation (1.4 × 10^4)
  Number of surviving microorganisms per g of contaminated sample, Clostridia: 55 CFU/g
Molds I; 1 day after inoculation (1.7 × 10^4)
  Number of surviving microorganisms per g of contaminated sample, Molds I: 4.0 × 10^3 CFU/g
Molds I; 3 days after inoculation (1.7 × 10^4)
  Number of surviving microorganisms per g of contaminated sample, Molds I: 700 CFU/g
Molds I; 7 days after inoculation (1.7 × 10^4)
  Number of surviving microorganisms per g of contaminated sample, Molds I: <100 CFU/g
Molds I; 14 days after inoculation (1.7 × 10^4)
  Number of surviving microorganisms per g of contaminated sample, Molds I: <10 CFU/g
Molds II; [2]
  Number of surviving microorganisms per g of contaminated sample, Molds II: 1.1 × 10^3 CFU/g
Molds II; [3]
  Number of surviving microorganisms per g of contaminated sample, Molds II: 80 CFU/g
Molds II; [4]
  Number of surviving microorganisms per g of contaminated sample, Molds II: 50 CFU/g
Molds II; [5]
  Number of surviving microorganisms per g of contaminated sample, Molds II: <10 CFU/g
Lactic acid bacteria; 1 day after inoculation (1.9 × 10^4)
  Number of surviving microorganisms per g of contaminated sample, Lactic acid bacteria: 4.0 × 10^4 CFU/g
Lactic acid bacteria; 3 days after inoculation (1.9 × 10^4)
  Number of surviving microorganisms per g of contaminated sample, Lactic acid bacteria: 3.2 × 10^5 CFU/g
Lactic acid bacteria; 7 days after inoculation (1.9 × 10^4)
  Number of surviving microorganisms per g of contaminated sample, Lactic acid bacteria: 2.4 × 10^3 CFU/g
Lactic acid bacteria; 14 days after inoculation (1.9 × 10^4)
  Number of surviving microorganisms per g of contaminated sample, Lactic acid bacteria: 130 CFU/g
Gram-positive bacteria; 1 day after inoculation (2.6 × 10^4)
  Number of surviving microorganisms per g of contaminated sample, Gram-positive bacteria: 7.0 × 10^4 CFU/g
Gram-positive bacteria; 3 days after inoculation (2.6 × 10^4)
  Number of surviving microorganisms per g of contaminated sample, Gram-positive bacteria: 7.0 × 10^3 CFU/g
Gram-positive bacteria; 7 days after inoculation (2.6 × 10^4)
  Number of surviving microorganisms per g of contaminated sample, Gram-positive bacteria: 400 CFU/g
Gram-positive bacteria; 14 days after inoculation (2.6 × 10^4)
  Number of surviving microorganisms per g of contaminated sample, Gram-positive bacteria: <10 CFU/g
Bacilli; [2]
  Number of surviving microorganisms per g of contaminated sample, Bacilli: 2.3 × 10^4 CFU/g
Bacilli; [3]
  Number of surviving microorganisms per g of contaminated sample, Bacilli: 1.4 × 10^3 CFU/g
Bacilli; [4]
  Number of surviving microorganisms per g of contaminated sample, Bacilli: 1.3 × 10^3 CFU/g
Bacilli; [5]
  Number of surviving microorganisms per g of contaminated sample, Bacilli: 50 CFU/g
Acetic acid bacteria; 1 day after inoculation (2.3 × 10^4)
  Number of surviving microorganisms per g of contaminated sample, Acetic acid bacteria: 7.5 × 10^4 CFU/g
Acetic acid bacteria; 3 days after inoculation (2.3 × 10^4)
  Number of surviving microorganisms per g of contaminated sample, Acetic acid bacteria: 2.1 × 10^6 CFU/g
Acetic acid bacteria; 7 days after inoculation (2.3 × 10^4)
  Number of surviving microorganisms per g of contaminated sample, Acetic acid bacteria: 2.9 × 10^6 CFU/g
Acetic acid bacteria; 14 days after inoculation (2.3 × 10^4)
  Number of surviving microorganisms per g of contaminated sample, Acetic acid bacteria: 1.1 × 10^6 CFU/g
Thermophilic bacilli; 1 day after inoculation (1.3 × 10^4)
  Number of surviving microorganisms per g of contaminated sample, Thermophilic bacilli: 1.1 × 10^3 CFU/g
Thermophilic bacilli; 3 days after inoculation (1.3 × 10^4)
  Number of surviving microorganisms per g of contaminated sample, Thermophilic bacilli: <100 CFU/g
Thermophilic bacilli; 7 days after inoculation (1.3 × 10^4)
  Number of surviving microorganisms per g of contaminated sample, Thermophilic bacilli: 10 CFU/g
Thermophilic bacilli; 14 days after inoculation (1.3 × 10^4)
  Number of surviving microorganisms per g of contaminated sample, Thermophilic bacilli: 5 CFU/g
Gram-negative bacteria; 1 day after inoculation (2.4 × 10^4)
  Number of surviving microorganisms per g of contaminated sample, Gram-negative bacteria: 3.5 × 10^4 CFU/g
Gram-negative bacteria; 3 days after inoculation (2.4 × 10^4)
  Number of surviving microorganisms per g of contaminated sample, Gram-negative bacteria: 1.7 × 10^3 CFU/g
Gram-negative bacteria; 7 days after inoculation (2.4 × 10^4)
  Number of surviving microorganisms per g of contaminated sample, Gram-negative bacteria: 900 CFU/g
Gram-negative bacteria; 14 days after inoculation (2.4 × 10^4)
  Number of surviving microorganisms per g of contaminated sample, Gram-negative bacteria: <10 CFU/g
Yeasts; 1 day after inoculation (2.5 × 10^4)
  Number of surviving microorganisms per g of contaminated sample, Yeasts: 8.5 × 10^4 CFU/g
Yeasts; 3 days after inoculation (2.5 × 10^4)
  Number of surviving microorganisms per g of contaminated sample, Yeasts: 5.0 × 10^4 CFU/g
Yeasts; 7 days after inoculation (2.5 × 10^4)
  Number of surviving microorganisms per g of contaminated sample, Yeasts: 1.2 × 10^3 CFU/g
Yeasts; 14 days after inoculation (2.5 × 10^4)
  Number of surviving microorganisms per g of contaminated sample, Yeasts: 10 CFU/g
[1]; dark at 7° C.
  Time after yellow-brown discoloration of a 1% strength aqueous solution: >12 months/>12 months
  Time after yellow-brown discoloration of the powder: 12 months/>12 months
[1]; dark at 25° C.
  Time after yellow-brown discoloration of a 1% strength aqueous solution: >12 months/>12 months
  Time after yellow-brown discoloration of the powder: 12 months/>12 months
[1]; under sunlight at 7° C.
  Time after yellow-brown discoloration of a 1% strength aqueous solution: 12 months/12 months
  Time after yellow-brown discoloration of the powder: 12 months/12 months
[1]; under sunlight at 25° C.
  Time after yellow-brown discoloration of a 1% strength aqueous solution: 12 months/12 months
  Time after yellow-brown discoloration of the powder: 12 months/12 months
All microorganisms used
  Antimicrobial activity (words, general statement): inhibited particularly well
All microorganisms used; 1 g/l in apple juice pH 4.5, up to 14 days
  Preservative action against the microorganisms used: acts well and persistently against all microorganisms used, except for bacilli
All microorganisms used; same concentration, 1 g/l in apple juice pH 4.5
  Preservative action compared with the single salts: acts surprisingly better than potassium sorbate (used at the same concentration), in particular against lactic acid bacteria, thermophilic bacilli, yeasts and some molds (molds group II)
